Laboratory results reported in PMC11547804, “Synthesis and Evaluation of Phenyltriazole-Deoxynojirimycin Hybrids as Potent α-Glucosidase Inhibitors” (Molecules, 2024).
Entries after “also recorded” stand apart in the source; their conditions may differ. Where two headings read alike, the source gives them in different places.

How the values were obtained:
β-glucosidase (almonds) [1] = settings: data for 7–9 and DNJ included for comparative purposes; cited from earlier work
α-glucosidase (yeast) [2] = target: T1, α-glucosidase (yeast) (Saccharomyces cerevisiae, UniProt P53341); set-up: method as in doi:10.1080/07328303.2020.1837150; settings: data for 7–9 and DNJ included for comparative purposes; cited from earlier work
T1 construct: purchased Sigma Chemical Co., St. Louis, MO, USA
T1 sequence (P53341 whole entry): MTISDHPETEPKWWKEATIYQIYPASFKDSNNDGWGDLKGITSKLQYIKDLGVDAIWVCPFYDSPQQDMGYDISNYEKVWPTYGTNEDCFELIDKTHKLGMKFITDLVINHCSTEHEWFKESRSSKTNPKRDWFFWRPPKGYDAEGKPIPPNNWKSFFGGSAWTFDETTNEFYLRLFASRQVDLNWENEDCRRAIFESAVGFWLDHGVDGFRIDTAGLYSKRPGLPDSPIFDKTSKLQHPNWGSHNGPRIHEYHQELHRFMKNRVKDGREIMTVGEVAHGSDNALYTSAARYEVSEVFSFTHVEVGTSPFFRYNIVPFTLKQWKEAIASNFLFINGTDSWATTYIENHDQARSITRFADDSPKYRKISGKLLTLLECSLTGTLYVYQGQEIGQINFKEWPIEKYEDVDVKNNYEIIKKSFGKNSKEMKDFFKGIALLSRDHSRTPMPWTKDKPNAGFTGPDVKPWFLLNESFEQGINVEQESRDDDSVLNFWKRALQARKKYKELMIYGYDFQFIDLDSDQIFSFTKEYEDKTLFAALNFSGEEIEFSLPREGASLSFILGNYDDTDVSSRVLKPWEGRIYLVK

β-glucosidase (almonds) [3] = experiment: β-glucosidase (almonds) inhibition assay, p-nitrophenyl glycopyranoside substrate; assay type: biochemical; settings: 50 mM phosphate buffer pH 6.8, 37 °C; mean ± SD, three independent experiments
Method: (§1) Compounds 10–20 (except 15 for solubility reasons) were evaluated by in vitro α-glucosidase (yeast), β-glucosidase (almonds) inhibition studies.
(§2) Two glycosidases, α-glucosidase (yeast) and β-glucosidase (almonds), and their corresponding substrates, p-nitrophenyl glycopyranosides, were purchased from Sigma Chemical Co., St. Louis, MO, USA. Other commercial reagents and solvents were used as received. Reactions were monitored by Thin Layer Chromatography (TLC) analyses using silica gel GF254 plates bearing a 0.25 mm layer. Visualization of compounds was detected by short-wave UV fluorescence (λ = 254 nm) and/or by dipping into 5% phosphomolybdic acid in EtOH. Column chromatography was carried out by silica gel (200–300 mesh). NMR spectra (^1H and ^13C) were recorded with Bruker AV III 500 MHz spectrometer using CDCl3 (22–33), D2O (10–13, 16–20) or CD3OD (14, 15) as solvents. High-resolution mass spectra (HRMS) were obtained by direct injection on a mass spectrometer (Thermo Scientific LTQ Orbitrap XL, Waltham, MA, USA) equipped with an electrospray ion source in positive mode (see Supplementary Materials).
(§3) The α-glucosidase and β-glucosidase assays were performed in 50 mM phosphate buffer (pH 6.8) at 37 °C. The inhibitors were pre-incubated with the enzyme solutions at 37 °C for 15 min, and then the corresponding substrates were added. After the enzymatic reaction was incubated at 37 °C for 15 min., it was quenched by adding Na2CO3. Absorbance readings were taken on a BioTek µQuant Microplate Spectrophotometer at 405 nm. Experiments were performed in triplicate. The IC50 values were determined graphically using GraphPad Prism (version 8.0).

α-glucosidase (yeast) [4] = target: T1, α-glucosidase (yeast); experiment: α-glucosidase (yeast) inhibition assay, p-nitrophenyl glycopyranoside substrate; assay type: biochemical; settings: 50 mM phosphate buffer pH 6.8, 37 °C; mean ± SD, three independent experiments
Method: as §1, §2, §3

yeast α-glucosidase = target: T2, yeast α-glucosidase (Saccharomyces cerevisiae, UniProt P53341); experiment: Kinetics of enzyme inhibition (Lineweaver–Burk plots); assay type: biochemical; settings: for mode of inhibition: Lineweaver–Burk plot, same Vmax; for Ki: substrate para-nitrophenyl α-D-glucopyranoside, pH 6.8, 37 °C, read-out: inhibition constant (Ki)
T2 construct: purchased Sigma Chemical Co., St. Louis, MO, USA
T2 sequence (P53341 whole entry): as above
Method: In order to gain further insight into how these hybrids interact with α-glucosidase, the mode of inhibition for compounds 18 and 19 as representative examples was analyzed using the Lineweaver–Burk plot (Figure 2).
The inhibition types of the selected compounds were determined from Lineweavere–Burk plots. […] The enzyme reaction was performed according to the conditions described above.
Figure 2 Double-reciprocal plots of the inhibition kinetics of yeast α-glucosidase by compounds 18 (a), 19 (b).

[5] = Cell proliferation / viability CCK-8 assay; assay type: cell-based; settings: human, HL60 cells; HL60, 50 µM, 24 h, CCK-8
Method: (§4) Compounds 9, 13 and 17–20 with better inhibitory activity on α-glucosidase were selected to study the effect on cell viability and proliferation by CCK-8 assay (Figure 5). […] When viability was measured at 50 µM for these compounds, the viability of compound 19 was 96.97% compared with 20.89% for compound 20. […] With the increase in compound concentration, a lot of dead cells and more cell debris were observed, and the culture medium became muddy for 20, which was not obviously observed for 9, 13 and 17–19.
(§5) HL60 cells in DMEM supplemented with 10% fetal bovine serum were seeded at a density of 5 × 10^3 cells/well in a 96-well plate and incubated at 37 °C for 24 h. The medium was substituted with fresh medium containing a range of concentrations of inhibitors in DMSO and cultured for another 24 h. CCK-8 solution (10 µL) was added to each well incubated at 37 °C for 1 h. The absorbance was read on a BioTek µQuant Microplate Spectrophotometer at 450 nm. The cell vitality curve was depicted with GraphPad Prism (version 8.0).

HL60 cells = experiment: Cell proliferation / viability CCK-8 assay; assay type: cell-based; settings: for cell survival rate: HL60, 80 µM, 24 h, CCK-8
Method: as §4, §5

| Compound | IC50 (β-glucosidase (almonds) [3]) [µM] | IC50 (α-glucosidase (yeast) [4]) [µM] | also measured |
| --- | --- | --- | --- |
| Cc1ccc(-c2cn(CCCCN3C[C@H](O)[C@@H](O)[C@H](O)[C@H]3CO)nn2)cc1 [Compound 8] | – | – | IC50 (β-glucosidase (almonds) [1]): > 1000 µM; IC50 (α-glucosidase (yeast) [2]): 324 ± 65 µM |
| CCCCc1ccc(-c2cn(CCCCN3C[C@H](O)[C@@H](O)[C@H](O)[C@H]3CO)nn2)cc1 [Compound 12, (2R,3R,4R,5S)-1-(4-(4-(4-butylphenyl)-1H-1,2,3-triazol-1-yl)butyl)-2-(hydroxymethyl)piperidine-3,4,5-triol] | 770 ± 92 | 105 ± 9 | – |
| CCCc1ccc(-c2cn(CCCCCCN3C[C@H](O)[C@@H](O)[C@H](O)[C@H]3CO)nn2)cc1 [Compound 17, (2R,3R,4R,5S)-2-(hydroxymethyl)-1-(6-(4-(4-propylphenyl)-1H-1,2,3-triazol-1-yl)hexyl)piperidine-3,4,5-triol] | 62 ± 4 | 14 ± 1 | – |
| CCCCc1ccc(-c2cn(CCCCCCN3C[C@H](O)[C@@H](O)[C@H](O)[C@H]3CO)nn2)cc1 [Compound 18, (2R,3R,4R,5S)-1-(6-(4-(4-butylphenyl)-1H-1,2,3-triazol-1-yl)hexyl)-2-(hydroxymethyl)piperidine-3,4,5-triol] | 69 ± 5 | 11 ± 1 | mode of inhibition (yeast α-glucosidase): competitive; Ki (yeast α-glucosidase): 3.8 µM |
| CCCCCCc1ccc(-c2cn(CCCCCCN3C[C@H](O)[C@@H](O)[C@H](O)[C@H]3CO)nn2)cc1 [Compound 20, (2R,3R,4R,5S)-1-(6-(4-(4-hexylphenyl)-1H-1,2,3-triazol-1-yl)hexyl)-2-(hydroxymethyl)piperidine-3,4,5-triol] | 77 ± 4 | 16 ± 2 | viability at 24 h, 50 µM [5]: 20.9%; cytotoxicity (HL60 cells; HL60, 50 µM): exhibited cytotoxicity; also recorded: cytotoxic; cell survival rate (HL60 cells): 6.66% |
| CCc1ccc(-c2cn(CCCCN3C[C@H](O)[C@@H](O)[C@H](O)[C@H]3CO)nn2)cc1 [Compound 10, (2R,3R,4R,5S)-1-(4-(4-(4-ethylphenyl)-1H-1,2,3-triazol-1-yl)butyl)-2-(hydroxymethyl)piperidine-3,4,5-triol] | > 1000 | 244 ± 32 | – |
| OC[C@@H]1[C@@H](O)[C@H](O)[C@@H](O)CN1CCCCn1cc(-c2ccccc2)nn1 [Compound 7] | – | – | IC50 (β-glucosidase (almonds) [1]): > 1000 µM; IC50 (α-glucosidase (yeast) [2]): 551 ± 25 µM |
| CCCCCCc1ccc(-c2cn(CCCCN3C[C@H](O)[C@@H](O)[C@H](O)[C@H]3CO)nn2)cc1 [Compound 13, (2R,3R,4R,5S)-1-(4-(4-(4-hexylphenyl)-1H-1,2,3-triazol-1-yl)butyl)-2-(hydroxymethyl)piperidine-3,4,5-triol] | 529 ± 41 | 82 ± 5 | – |
| CCc1ccc(-c2cn(CCCCCCN3C[C@H](O)[C@@H](O)[C@H](O)[C@H]3CO)nn2)cc1 [Compound 16, (2R,3R,4R,5S)-1-(6-(4-(4-ethylphenyl)-1H-1,2,3-triazol-1-yl)hexyl)-2-(hydroxymethyl)piperidine-3,4,5-triol] | 65 ± 2 | 68 ± 4 | – |
| CCCCCc1ccc(-c2cn(CCCCN3C[C@H](O)[C@@H](O)[C@H](O)[C@H]3CO)nn2)cc1 [Compound 9] | – | – | IC50 (β-glucosidase (almonds) [1]): 665 ± 57 µM; IC50 (α-glucosidase (yeast) [2]): 63 ± 6 µM |
| CCCCCc1ccc(-c2cn(CCCCCCN3C[C@H](O)[C@@H](O)[C@H](O)[C@H]3CO)nn2)cc1 [Compound 19, (2R,3R,4R,5S)-2-(hydroxymethyl)-1-(6-(4-(4-pentylphenyl)-1H-1,2,3-triazol-1-yl)hexyl)piperidine-3,4,5-triol] | 73 ± 7 | 11 ± 1 | mode of inhibition (yeast α-glucosidase): competitive; Ki (yeast α-glucosidase): 3.7 µM; viability at 24 h, 50 µM [5]: 97%; cell survival rate (HL60 cells): 71.28% |
| OC[C@@H]1[C@@H](O)[C@H](O)[C@@H](O)CN1CCCCCCn1cc(-c2ccccc2)nn1 [Compound 14, (2R,3R,4R,5S)-2-(hydroxymethyl)-1-(6-(4-phenyl-1H-1,2,3-triazol-1-yl)hexyl)piperidine-3,4,5-triol] | 130 ± 5 | 130 ± 9 | – |
| CCCc1ccc(-c2cn(CCCCN3C[C@H](O)[C@@H](O)[C@H](O)[C@H]3CO)nn2)cc1 [Compound 11, (2R,3R,4R,5S)-2-(hydroxymethyl)-1-(4-(4-(4-propylphenyl)-1H-1,2,3-triazol-1-yl)butyl)piperidine-3,4,5-triol] | 739 ± 78 | 171 ± 25 | – |
